Source: patent publication US8247444B2, “Anti-tumor effect of dimeric phthalide compound” (priority 2007, dated 2012)
In brackets after ≈: the same amount, converted by molar mass.

Legend:
K562 = experiment: Growth inhibition of sensitive and drug-resistant cell lines (IC50), K562; assay type: cell-based; details: Homo sapiens; K562 cells
Protocol: (§1) The human lung cancer cell H1299 and H446, glioma cell U251 and U87MG, and human hepatic cellular cancer Bel-7402 cell in logarithmic growth phase were digested with pancreatic enzyme, and then suspended into DMEM or RPMI1640 containing 10% fetal bovine serum. The leukemic cells Kasumi-1 need no digestion, and were suspended into RPMI1640 containing 10% fetal bovine serum directly after centrifugalization. The cell density was adjusted to 1×10^4 cells/ml through cell counting, and the cell suspensions were seeded into a 96-well plate respectively, 100 μl/well, totally 6 groups of cells. The adherent cells were cultured overnight, the suspended cells were added different concentration gradients of dimeric phthalide compounds (S1-S6) directly, n=6 for each concentration of a single agent. The final volume was 200 ul, and the balance was supplemented with the culture medium. The plate was then incubated for 68 hours in 37° C., saturated humidity, 5% CO2 cell incubator. The medium was aspirated and 72 μl/well fresh culture medium was added. 8 μl […] (CCK-8) was added into each well and cultured for 2 hours. The absorbance was measured at 450 nm. The results were calculated as the 50% inhibiting drug concentration, i.e. IC50, using Sigmoidal simulation function by software Origin 7.0.
(§2) The cancer cells (various cell lines as shown in table 1 or FIG. 3) were seeded 1×10^3 cells per well into a 96-well plate. The suspended cells were added different concentration of dimeric phthalide compounds (S1-S6) directly, and the adherent cells were cultured overnight and added different concentration of dimeric phthalide compounds (S1-S6). The different concentration of dimeric phthalide compounds were divided into 10 groups: 0, 0.1, 0.5, 1, 5, 10, 20, 40, 80, 160 μg/ml, n=6 for each concentration.
(§3) According to the method described in Example 2, […] was detected and IC50 was calculated. The experiment was repeated for 3 times.
(§4) The growth inhibition effects of dimers of S1-S6 on its sensitive cell lines as well as the drug-resistant sub-strains (IC50 (μg/ml)) were shown in table 1 and FIG. 3.

K562/Adr = experiment: Growth inhibition of sensitive and drug-resistant cell lines (IC50), K562/Adr; assay type: cell-based; details: Homo sapiens; K562/Adr drug-resistant cells
Source text: (§5) HL-60/ADR, MCF-7/ADR, K562/ADR, Bel-7402/5-FU, KBV200, SMMC-7721/Adr were respectively chemotherapeutics Adriamycin (ADR), 5-Fluorouracil (5-FU) or vincristine (VCR) drug-resistant sub-stains of HL-60, MCF-7, K562, Bel-7402, KB, SMMC-7721 cells (all from Chinese Academy of Medical Sciences). NB4-R2 was all trans-retinoic acid (ATRA) drug-resistant sub-stain (from Pathophysiology Research Department of Shanghai JiaoTong University). The main drug-resistance mechanism of K562/ADR was high expression of P-glycoprotein (P-gp), along with increased expression of Bcl-2. In addition to high expression of P-gp, the drug-resistance mechanism of MCF-7/ADR also related to the high expression of Breast Cancer Resistant Protein (BCRP). The main drug-resistance mechanism of HL-60/ADR was high expression of Multidrug Resistance Protein 1 (MRP1), along with high expression of Bcl-2, Bcl-xL. […] The main drug-resistance mechanism of KBV200 was high expression of P-gp and its increased activity. The drug-resistance mechanism of NB4-R2 on ATRA was mutation in the RAR gene locus.
as §1, §2, §3, §4

KB [1] = experiment: Growth inhibition of sensitive and drug-resistant cell lines (IC50), KB; assay type: cell-based; details: Homo sapiens; KB cells, Table 1
Protocol: (§6) In the following Examples, the cell lines used were H1299, H446 (human lung cancer cell line), KB (human oral cavity carcinoma cell line), NB4, HL-60 (human leukemic cell line), U251 ? U87MG (human glioblastoma cell line), MCF-7 (human breast carcinoma cell line), Bel-7402 and SMMC7721 (human hepatic cellular cancer cell line), SW620 (human colon carcinoma cell line), HDF (human dermis fibroblast), HUVEC (human umbilical vein endothelial cell line) and Kasumi-1 (human acute myeloid leukaemia cell line), all from American Type Culture Collection (ATCC).
as §1, §2, §3, §4

KBv200 = experiment: Growth inhibition of sensitive and drug-resistant cell lines (IC50), KBv200; assay type: cell-based; details: Homo sapiens; KBv200 drug-resistant cells
Source text: as §5, §1, §2, §3, §4

MCF-7 = experiment: Growth inhibition of sensitive and drug-resistant cell lines (IC50), MCF-7; assay type: cell-based; details: Homo sapiens, MCF7; MCF-7 cells
Protocol: as §6, §1, §2, §3, §4

MCF-7/Adr = experiment: Growth inhibition of sensitive and drug-resistant cell lines (IC50), MCF-7/Adr; assay type: cell-based; details: Homo sapiens, NCI/ADR-RES; MCF-7/Adr drug-resistant cells
Source text: as §5, §1, §2, §3, §4

Bel-7402 [2] = experiment: Growth inhibition of sensitive and drug-resistant cell lines (IC50), Bel-7402; assay type: cell-based; details: Homo sapiens; Bel-7402 cells, Table 1
Protocol: as §6, §1, §2, §3, §4

Bel-7402/5-Fu = experiment: Growth inhibition of sensitive and drug-resistant cell lines (IC50), Bel-7402/5-Fu; assay type: cell-based; details: Homo sapiens, Bel7402/5-FU; Bel-7402/5-Fu drug-resistant cells
Source text: as §5, §1, §2, §3, §4

SMMC-7721 = experiment: Growth inhibition of sensitive and drug-resistant cell lines (IC50), SMMC-7721; assay type: cell-based; details: Homo sapiens; SMMC-7721 cells
Protocol: as §6, §1, §2, §3, §4

SMMC-7721/Adr = experiment: Growth inhibition of sensitive and drug-resistant cell lines (IC50), SMMC-7721/Adr; assay type: cell-based; details: Homo sapiens; SMMC-7721/Adr drug-resistant cells
Source text: as §5, §1, §2, §3, §4

HUVEC = experiment: Vascular endothelial cell inhibition assay (CCK-8), HUVEC; assay type: cell-based; details: Homo sapiens, 72 h
Protocol: (§7) 2×10^3 cells were seeded into a 96-well plate and cultured for 24 h. S1-S6 of different concentrations (0, 0.01, 0.1, 0.5, 1, 2.5, 5, 10, 20, 40, 80, 160 μg/ml, respectively) were added and incubated for 72 h, n=6 for each concentration. The inhibition of cell proliferation was detected by CCK-8 assay, the results were calculated as IC50, as describe in Example 3.

HDF = experiment: Vascular endothelial cell inhibition assay (CCK-8), HDF; assay type: cell-based; details: Homo sapiens, 72 h
Protocol: as §7

KB [3] = experiment: Vascular endothelial cell inhibition assay (CCK-8), KB; assay type: cell-based; details: Homo sapiens, 72 h, CCK-8, Table 2
Protocol: as §7

Bel-7402 [4] = experiment: Vascular endothelial cell inhibition assay (CCK-8), Bel-7402; assay type: cell-based; details: Homo sapiens, 72 h, CCK-8, Table 2
Protocol: as §7

[5] = tested on: secretion of VEGF in H1299 cell; experiment: VEGF in supernatant of tumor cell H1299 culture (VEGF-ELISA); assay type: cell-based, human; details: H1299, compound 5 μg/ml, 24 h; for inhibition at 5 µg/mL: Homo sapiens, NCI-H1299, read-out: Inhibition rate of VEGF secretion
Protocol: Assay of vascular endothelial cell growth factor (VEGF) in supernatant of tumor cell H1299 culture. The cell was seeded into a 24-well plate (n=3 for each sample). H1299 cell was treated with S1-S6 respectively and cultured for 24 h. The culture supernatants from each group were collected and operated according to the instruction of VEGF-ELISA kit (JIN MEI Corporation). The samples were added, incubated, washed and detected at 450 nm for OD values of each sample. The standard curve was obtained by using different dose of VEGF standards and the secretory volume of VEGF in the supernatant was calculated.

[6] = tested on: H1299, H446, U251, U87MG, Bel-7402 and Kasumi-1 cells; experiment: Inhibition effects on proliferation (CCK-8), various human cancer cells; assay type: cell-based; details: FIG. 2, 68 h
Protocol: as §1

[7] = tested on: drug-resistant cells of different mechanisms and sensitive cells; experiment: Overcome drug resistance: efficacy on drug-resistant cells compared with sensitive cells; assay type: cell-based, human; details: table 1 and FIG. 3
Protocol: as §2, §3

HL-60, H1299, U251 cells = experiment: Inducing cell death (Rh123/PI flow cytometry); assay type: cell-based, human; details: 48 h, FIG. 5
Protocol: S1-S6 of different concentrations (as shown in FIG. 5) were added into HL-60, H1299, U251 cells under good growing conditions. The cells were cultured for 48 h, and collected. The cells were incubated with rhodamine 123 (Rh123) of the final concentration of 10 μg/ml for 20 min at 37° C., and then washed with pre-cooled PBS twice. The cells were suspended into PBS, and PI of final concentration of 25 μg/ml was added. After incubated in the dark at room temperature for 15 min, mitochondria membrane potential and PI positive cells were detected by flow cytometry, the death rate was calculated as the rate of PI positive cells.

[8] = tested on: U87MG, H1299 and HL-60 heterograft tumors; experiment: Inhibition of the growth of nude mouse heterograft tumors; assay type: in vivo, Balb/c male nude mice; details: intraperitoneal; S4 25 mg/kg, S6 30 mg/kg, S1 32 mg/kg, BP 250 mg/kg; 4 weeks; FIG. 9
Protocol: Experimental grouping: Balb/c male nude mice were used, each weighted 18-22 g, and three assays were performed. The mice were seeded with U87MG, H1299 and HL-60 respectively. The animals were divided into three groups for each experiment, one as control, one was administered with the dimeric phthalide compounds, and one was administered with monomers of phthalide compound, 6 animals for each group.
For the group which was administered with monomers of phthalide compound, we used n-butylidenephthalide (BP) (Sigma) as active ingredient for tumor suppression, the compound had the structure as follows:
Experimental Process The H1299, HL-60 or U87MG cells growing in logarithmic phase were used. […] When the tumors had gown into 0.1-0.5 cm^3 (about 7-10 days), the animals were intraperitoneal injected with the dimeric phthalide compound S4 (25 mg/kg), S6 (30 mg/kg), S1 (32 mg/kg), each 200 μl; for the group of monomers of phthalide compound, the mice were intraperitoneal injected with n-butylidenephthalide (250 mg/kg); the control group was administered with equal volume of vehicle. The animals were sacrificed after 4 weeks, and the subcutaneous tumors were separated. Photographs were taken (FIG. 9A) and the tumors were weighted (FIG. 9B).

SMILES	IC50 (K562)	IC50 (K562/Adr)	IC50 (KB [1])	IC50 (KBv200)	IC50 (MCF-7)	IC50 (MCF-7/Adr)	IC50 (Bel-7402 [2])	IC50 (Bel-7402/5-Fu)	IC50 (SMMC-7721)	IC50 (SMMC-7721/Adr)	IC50 (HUVEC)	IC50 (HDF)	IC50 (KB [3])	IC50 (Bel-7402 [4])	Supernatant VEGF [5]	inhibition at 5 µg/mL [5]	inhibition effect on proliferation of various human cancer cells [6]	efficacy on drug-resistant cells compared with sensitive cells [7]	inducing decrease of cell mitochondria membrane potential and cell death (HL-60, H1299, U251 cells)	tumor inhibition effect [8]
CCC/C=C1\OC(=O)C2=C1CCC1C2[C@@]23CC[C@@H]1C=C2C(=O)O/C3=C\CCC (stereo partly drawn) [S4]	11.5 ± 0.831 µg/mL (≈ 30.3 µM)	12.4 ± 1.01 µg/mL (≈ 32.5 µM)	15.5 ± 3.22 µg/mL (≈ 40.8 µM)	17.4 ± 2.03 µg/mL (≈ 45.9 µM)	18.4 ± 2.8 µg/mL (≈ 48.5 µM)	20.3 ± 2.12 µg/mL (≈ 53.4 µM)	16.4 ± 1.94 µg/mL (≈ 43.2 µM)	17.6 ± 3.68 µg/mL (≈ 46.1 µM)	19.4 ± 3.12 µg/mL (≈ 51 µM)	22.7 ± 2.55 µg/mL (≈ 59.6 µM)	4.14 µg/mL (≈ 10.9 µM)	82.2 µg/mL (≈ 216 µM)	21.4 µg/mL (≈ 56.2 µM)	30.4 µg/mL (≈ 79.9 µM)	234.00 ± 34.03 ng/ml/10^6 cells	37.3%	best inhibition effects on most of the cancer cells	the best effect	best effect of inducing cell death	significant tumor inhibition effects
CCC/C=C1\OC(=O)C2=CC3CC[C@]21C1C2=C(CC[C@@H]31)C(CCCC)OC2=O (stereo partly drawn) [S5]	18.4 ± 0.87 µg/mL (≈ 48.2 µM)	18.3 ± 0.762 µg/mL (≈ 47.9 µM)	16.4 ± 2.05 µg/mL (≈ 42.9 µM)	19.8 ± 1.05 µg/mL (≈ 51.8 µM)	28.5 ± 1.91 µg/mL (≈ 74.6 µM)	29.2 ± 2.14 µg/mL (≈ 76.4 µM)	30.2 ± 2.17 µg/mL (≈ 79 µM)	28.1 ± 4.02 µg/mL (≈ 73.4 µM)	36 ± 3.92 µg/mL (≈ 94.2 µM)	35.2 ± 2.33 µg/mL (≈ 92.1 µM)	4.04 µg/mL (≈ 10.6 µM)	75.8 µg/mL (≈ 198 µM)	36 µg/mL (≈ 94.1 µM)	29.7 µg/mL (≈ 77.6 µM)	236.32 ± 24.02 ng/ml/10^6 cells	36.7%	–	–	–	–
CCC/C=C1\OC(=O)C2=C1CCC1C2C2(OC(=O)C3=C2CCC=C3)C1(C)CCC (stereo not drawn) [S6]	10.3 ± 0.597 µg/mL (≈ 26.2 µM)	11.8 ± 0.995 µg/mL (≈ 29.9 µM)	13 ± 2.5 µg/mL (≈ 32.9 µM)	12.2 ± 2.15 µg/mL (≈ 31 µM)	22.4 ± 2.03 µg/mL (≈ 56.9 µM)	24.5 ± 2.09 µg/mL (≈ 62.1 µM)	22.6 ± 3.01 µg/mL (≈ 57.3 µM)	24 ± 2.66 µg/mL (≈ 60.8 µM)	24 ± 1.87 µg/mL (≈ 60.8 µM)	23 ± 2.76 µg/mL (≈ 58.2 µM)	4.27 µg/mL (≈ 10.8 µM)	136 µg/mL (≈ 344 µM)	26.3 µg/mL (≈ 66.6 µM)	30 µg/mL (≈ 76.1 µM)	237.25 ± 22.38 ng/ml/10^6 cells	36.4%	–	the best effect	–	significant tumor inhibition effects
